From patent US9914732B2, “Diazabicyclo[4.3.1]decane derivatives for treatment of psychiatric disorders” (Max-Planck-Gesellschaft zur Forderung der Wissenschaften …, priority 2014, dated 2018)

Key:
[1] = target: T1, FKBP51 (Homo sapiens, UniProt Q13451); experiment: Fluorescence polarization (FP) assay, binding to the FK506-binding domain of FKBP51; conditions: FK506-binding domain of FKBP51 (FKBP51FK1), competition with fluorescent ligand 2b
T1 sequence (Q13451 42-130 limits assumed): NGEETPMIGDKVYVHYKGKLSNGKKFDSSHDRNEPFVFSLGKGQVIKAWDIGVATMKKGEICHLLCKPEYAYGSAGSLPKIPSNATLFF
Procedure: (§1) In the present invention, in vitro fluorescence polarization assays with the compounds of the general formula (I) were performed to determine the binding affinities to FKBP51 and FKBP52 or to the isolated FK506-binding domains of FKBP51 and FKBP52 ([…]). Binding to the isolated FK506-binding domains is reliably indicative of binding to the full length proteins. The affinities for the isolated FK506-binding domains and for full-length FKBP51 or FKBP52 are the same for all compounds tested so far (Kozany et al, ChemBioChem 2009, 10, 1402-1410).
(§2) Example 11: Fluorescence Polarization (FP) Assays
(§3) In-vitro fluorescence polarization assays were performed to determine the binding affinities for FKBP51 and 52 according to a literature procedure (Kozany, C.; Marz, A.; Kress, C.; Hausch, F., Fluorescent probes to characterise FK506-binding proteins. Chembiochem 2009, 10, (8), 1402-10).
(§4) For fluorescence polarization assays the fluorescent ligand 2b was dissolved in HEPES (20 mm, pH 8), Triton-X100 (0.01%), at double the concentration required for the final sample. The target protein was also diluted in this assay buffer at double the highest concentration required for the final sample. This protein stock was used for a 1:1 serial dilution.
(§5) The fluorescent ligand 2b was diluted in assay buffer to a concentration double the final concentration (20 nM 2b). The inventive compound was dissolved in DMSO to reach a 100-times concentrated stock solution. This was used for a 1:1 serial dilution in DMSO. Every sample of this serial dilution was diluted by a factor of 50 in assay buffer supplemented with ligand 2b to achieve a 2× concentrated mixture of ligand 2b and the inventive compound. To this competitive ligand double the protein concentration for 2b assay: FKBP51FK1 560 nM (2×280 nM) or FKBP52FK1 800 nM (2×400 nM) diluted in assay buffer was added.
(§6) The samples were transferred to black 384-well assay plates (No.: 3575; Corning Life Sciences). After incubation at room temperature for 30 min the fluorescence anisotropy was measured (GENios Pro, Tecan, Männedorf, Switzerland) by using an excitation filters of 485/20 nm and emission filters of 535/25 nm. The binding assays were performed in duplicates in the plate format.
(§7) The competition curves were analyzed by using SigmaPlot9. Data were fitted to a four parameter logistic curve to deduce the IC50 values. For the analysis of K1 values, data were fitted to the following equation (Z. X. Wang, FEBS Lett. 1995, 360, 111-114). A=(Amax−Amin)/[L]t×(([L]t×((2×((Klig+Kcomp+[L]t+[I]t−[R]t)^2−3×(Kcomp×([L]t−[R]t)+Klig×([I]t−[R]t)+[…]))^0.5×COS(ARCCOS((−2×(Klig+Kcomp+[L]t+[I]t−[R]t)^3+9×(Klig+Kcomp+[L]t+[I]t−[R]t)×(Kcomp×([L]t−[R]t)+Klig×([I]t−[R]t)+Klig×Kcomp)−27×(−1×Klig×Kcomp×[R]t))/(2×((((Klig+Kcomp+[L]t+[I]t−[R]t)^2−3×(Kcomp×([L]t−[R]t)+Klig×([I]t−[R]t)+Klig×Kcomp))^3)^0.5)))/3))−(Klig+Kcomp+[L]t+[I]t−[R]t)))/((3×Klig)+((2×((Klig+Kcomp+[L]t+[I]t−[R]t)^2−3×(Kcomp×([L]t−[R]t)+Klig×([I]t−[R]t)+Klig×Kcomp))^0.5×COS(ARCCOS((−2×(Klig+Kcomp+[L]t+[I]t−[R]t)^3+9×(Klig+Kcomp+[L]t+[I]t−[R]t)×(Kcomp×([L]t−[R]t)+Klig×([I]t−[R]t)+Klig×Kcomp)−27×(−1×Klig×Kcomp×[R]t))/(2×((((Klig+Kcomp+[L]t+[I]t−[R]t)^2−3×(Kcomp×([L]t−[R]t)+Klig×([I]t−[R]t)+Klig×Kcomp))^3)^0.5)))/3))−(Klig+Kcomp+[L]t+[I]t−[R]t)))+Amin
(§8) In this equation Klig and Kcomp stand for the Kd values of the used tracer or competing inhibitor, [I]t is referring to the total concentration of the titrated inhibitor.

[2] = target: T2, FKBP52 (Homo sapiens, UniProt Q02790); experiment: Fluorescence polarization (FP) assay, binding to the FK506-binding domain of FKBP52; conditions: FK506-binding domain of FKBP52 (FKBP52FK1), competition with fluorescent ligand 2b
T2 sequence (Q02790 50-138 limits assumed): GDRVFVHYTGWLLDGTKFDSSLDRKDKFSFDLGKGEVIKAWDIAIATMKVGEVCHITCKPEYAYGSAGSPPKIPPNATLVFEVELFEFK
Procedure: as §1, §2, §3, §4, §5, §6, §7, §8

Row | SMILES | Ki [1] | Ki [2]
1 | COc1ccc(OCCN2C[C@H]([C@H](O)CO)C3CCCC(C2=O)N3S(=O)(=O)c2cc(Cl)cc(Cl)c2)cc1OC (stereo partly drawn) [C2(C2a/b), (1S,5S,6R)-10-((3,5-dichlorophenyl)sulfonyl)-5-(1,2-dihydroxyethyl)-3-(2-(3,4-dimethoxyphenoxy)ethyl)-3, 10-diazabicyclo[4.3.1]decan-2-one] | ≤ 100 nM | ≤ 100 nM
2 | COCCN1C[C@H](C(C)(C)O)[C@H]2CCC[C@@H](C1=O)N2S(=O)(=O)c1cc(Cl)cc(Cl)c1 [Compound B3, (1S,5S,6R)-10-((3,5-dichlorophenyl)sulfonyl)-5-(2-hydroxypropan-2-yl)-3-(2-methoxyethyl)-3,10-diazabicyclo[4.3.1]decan-2-one] | ≤ 100 nM | ≤ 100 nM
3 | COCCN1C[C@H]([C@H](C)O)[C@H]2CCC[C@@H](C1=O)N2S(=O)(=O)c1cc(Cl)cc(Cl)c1 [Compound B7, (1S,5S,6R)-10-((3,5-dichlorophenyl)sulfonyl)-5-((S)-1-hydroxyethyl)-3-(2-methoxyethyl)-3,10-diazabicyclo[4.3.1]decan-2-one] | ≤ 100 nM | ≤ 100 nM
4 | COCCN1C[C@H](CCO)[C@H]2CCC[C@@H](C1=O)N2S(=O)(=O)c1cc(Cl)cc(Cl)c1 [Compound B8, (1S,5S,6R)-10-((3,5-dichlorophenyl)sulfonyl)-5-(2-hydroxyethyl)-3-(2-methoxyethyl)-3,10-diazabicyclo[4.3.1]decan-2-one] | 100 to 500 nM | 100 to 500 nM
5 | COCCN1C[C@H](C=O)[C@H]2CCC[C@@H](C1=O)N2S(=O)(=O)c1cc(Cl)cc(Cl)c1 [Compound B9, (1S,5S,6R)-10-((3,5-dichlorophenyl)sulfonyl)-3-(2-methoxyethyl)-2-oxo-3,10-diazabicyclo[4.3.1]decane-5-carbaldehyde] | 100 to 500 nM | 100 to 500 nM
6 | COCCN1C[C@H](C(N)=O)[C@H]2CCC[C@@H](C1=O)N2S(=O)(=O)c1cc(Cl)cc(Cl)c1 [Compound B11, (1S,5S,6R)-10-((3,5-dichlorophenyl)sulfonyl)-3-(2-methoxyethyl)-2-oxo-3,10-diazabicyclo[4.3.1]decane-5-carboxamide] | 100 to 500 nM | 100 to 500 nM
7 | CNC[C@H]1CN(CCOC)C(=O)[C@@H]2CCC[C@H]1N2S(=O)(=O)c1cc(Cl)cc(Cl)c1 [Compound B12, (1S,5S,6R)-10-((3,5-dichlorophenyl)sulfonyl)-3-(2-methoxyethyl)-5-((methylamino)methyl)-3,10-diazabicyclo[4.3.1]decan-2-one] | 100 to 500 nM | 100 to 500 nM
8 | CC[C@H]1CN(CCOC)C(=O)[C@@H]2CCC[C@H]1N2S(=O)(=O)c1cc(Cl)cc(Cl)c1 [Compound B15, (1S,5S,6R)-10-((3,5-dichlorophenyl)sulfonyl)-5-ethyl-3-(2-methoxyethyl)-3,10-diazabicyclo[4.3.1]decan-2-one] | ≤ 100 nM | ≤ 100 nM
9 | CCOCCN1C[C@H](C(O)CO)[C@H]2CCC[C@@H](C1=O)N2S(=O)(=O)c1cc(Cl)cc(Cl)c1 (stereo partly drawn) [Compound C3, (1S,5S,6R)-10-((3,5-dichlorophenyl)sulfonyl)-5-(1,2-dihydroxyethyl)-3-(2-ethoxyethyl)-3,10-diazabicyclo[4.3.1]decan-2-one] | 100 to 500 nM | 100 to 500 nM
10 | COc1ccc(OCCN2C[C@H](C(C)(C)O)[C@H]3CCC[C@@H](C2=O)N3S(=O)(=O)c2cc(Cl)cc(Cl)c2)cc1OC [Compound D3, (1S,5S,6R)-10-((3,5-dichlorophenyl)sulfonyl)-3-(2-(3,4-dimethoxyphenoxy)ethyl)-5-(2-hydroxypropan-2-yl)-3,10-diazabicyclo[4.3.1]decan-2-one] | ≤ 100 nM | ≤ 100 nM
11 | COc1ccc(OCCN2C[C@H](CCO)[C@H]3CCC[C@@H](C2=O)N3S(=O)(=O)c2cc(Cl)cc(Cl)c2)cc1OC [Compound D8, (1S,5S,6R)-10-((3,5-dichlorophenyl)sulfonyl)-3-(2-(3,4-dimethoxyphenoxy)ethyl)-5-(2-hydroxyethyl)-3,10-diazabicyclo[4.3.1]decan-2-one] | ≤ 100 nM | ≤ 100 nM
12 | O=C1NC[C@H](O)[C@H]2CCC[C@@H]1N2S(=O)(=O)c1cc(Cl)cc(Cl)c1 [Compound G6, (1S,5S,6R)-10-((3,5-dichlorophenyl)sulfonyl)-5-hydroxy-3,10-diazabicyclo[4.3.1]decan-2-one] | 500 to 1000 nM | 100 to 500 nM
13 | N[C@@H]1CNC(=O)[C@@H]2CCC[C@H]1N2S(=O)(=O)c1cc(Cl)cc(Cl)c1 [Compound H1.2, (1S,5R,6R)-5-amino-10-((3,5-dichlorophenyl)sulfonyl)-3,10-diazabicyclo[4.3.1]decan-2-one] | 1000 to 5000 nM | 1000 to 5000 nM
14 | CO[C@H]1CN(C)C(=O)[C@@H]2CCC[C@H]1N2S(=O)(=O)c1cc(Cl)cc(Cl)c1 [Compound H1.3, (1S,5S,6R)-10-((3,5-dichlorophenyl)sulfonyl)-5-methoxy-3-methyl-3,10-diazabicyclo[4.3.1]decan-2-one] | 500 to 1000 nM | 500 to 1000 nM
15 | O=C1NC[C@@H](O)[C@H]2CCC[C@@H]1N2S(=O)(=O)c1cc(Cl)cc(Cl)c1 [Compound H1.4, (1S,5R,6R)-10-((3,5-dichlorophenyl)sulfonyl)-5-hydroxy-3,10-diazabicyclo[4.3.1]decan-2-one] | 1000 to 5000 nM | 1000 to 5000 nM
16 | COCCO[C@H]1CN(CCOC)C(=O)[C@@H]2CCC[C@H]1N2S(=O)(=O)c1cc(Cl)cc(Cl)c1 [Compound H2.1, (1S,5S,6R)-10-((3,5-dichlorophenyl)sulfonyl)-5-(2-methoxyethoxy)-3-(2-methoxyethyl)-3,10-diazabicyclo[4.3.1]decan-2-one] | 100 to 500 nM | 100 to 500 nM
17 | COCO[C@H]1CNC(=O)[C@@H]2CCC[C@H]1N2S(=O)(=O)c1cc(Cl)cc(Cl)c1 [Compound H2.2, (1S,5S,6R)-10-((3,5-dichlorophenyl)sulfonyl)-5-(methoxymethoxy)-3,10-diazabicyclo[4.3.1]decan-2-one] | 500 to 1000 nM | 500 to 1000 nM
18 | COc1ccc(OCCN2C[C@H](O)[C@H]3CCC[C@@H](C2=O)N3S(=O)(=O)c2cc(Cl)cc(Cl)c2)cc1OC [Compound H2.3, (1S,5S,6R)-10-((3,5-dichlorophenyl)sulfonyl)-3-(2-(3,4-dimethoxyphenoxy)ethyl)-5-hydroxy-3,10-diazabicyclo[4.3.1]decan-2-one] | ≤ 100 nM | 100 to 500 nM
19 | C=C[C@@H]1CN(CCCCOC)C(=O)[C@@H]2CCC[C@H]1N2S(=O)(=O)c1cc(Cl)cc(Cl)c1 [Compound J3, (1S,5R,6R)-10-((3,5-dichlorophenyl)sulfonyl)-3-(4-methoxybutyl)-5-vinyl-3,10-diazabicyclo[4.3.1]decan-2-one] | 500 to 1000 nM | 500 to 1000 nM
20 | O=C1[C@@H]2CCC[C@H]([C@H](CO)CN1CCCO)N2S(=O)(=O)c1cc(Cl)cc(Cl)c1 [Compound J5, (1S,5R,6R)-10-((3,5-dichlorophenyl)sulfonyl)-5-(hydroxymethyl)-3-(3-hydroxypropyl)-3,10-diazabicyclo[4.3.1]decan-2-one] | 500 to 1000 nM | 500 to 1000 nM
